Measurements: article PMC9718554, “Discovery of a fragment hit compound targeting D-Ala:D-Ala ligase of bacterial peptidoglycan biosynthesis” (Journal of Enzyme Inhibition and Medicinal Chemistry, 2022)

system: not listed separately; experiment: Solubility at tested concentrations (fragment library screening); type: physicochemical; settings: tested concentration 1.7 mM
Source text: Supplement IENZ_A_2149745_SM2502.zip/DDlB_CDR05_SI_20221103.xlsx, sheet "Fragment library screening" | column: Solubility at tested concentrations

For O=C(N/N=C/c1ccc2cccc(O)c2n1)c1ccccc1 [Compound 4539-0001], the “Solubility at tested concentrations” value was “not soluble”.

same assay, conditions: tested concentration 2.1 mM

In the case of Cc1c(Cl)ccc(S(N)(=O)=O)c1Cl [Compound 8011-1291], the “Solubility at tested concentrations” value was “not soluble”.

same assay, conditions: tested concentration 2.2 mM

For Nc1cc(Br)cc2cccnc12 [Compound 8009-3726], the “Solubility at tested concentrations” value was “not soluble”.

target: T1, E. coli DdlB enzyme (D-alanine:D-alanine ligase) (Escherichia coli, UniProt P07862); experiment: biochemical; settings: at 0.5 mM; read-out: DdlB inhibition, RA (Residual Activity)
T1 construct: made in house; host or cells: E. coli

Cc1ccc(-c2ccnc3c(C(=O)O)cnn23)cc1 [Compound 10, 7-(p-Tolyl)pyrazolo[1,5-a]pyrimidine-3-carboxylic acid] gave a remaining activity at 500 µM of 101%.

same assay, conditions: fragment library screening; tested concentration 1.8 mM; read-out: DdlB RA

In the case of O=C(O)C1CCN(c2ccc(C(F)(F)F)cn2)CC1 [FF30-0262], the remaining activity at 1800 µM was 92%.

same assay, conditions: fragment library screening; tested concentration 1.9 mM; read-out: DdlB RA

Point of comparison: O=C(O)CC1(CC(=O)Nc2cccnc2)CCCC1 [Compound 8016-0695], remaining activity at 1900 µM 93%. Against it:
- O=C(O)Cn1nnc(-c2cccc(-n3cccn3)c2)n1 [Compound 8020-8838] — lower, 92%

same assay, conditions: residual activity of DdlB, fragment library screening, tested concentration 2.4 mM; read-out: DdlB RA

Cc1cc(C)n(CCO)c(=O)n1 [Compound 8012-5852] showed a remaining activity at 2400 µM of 94%.

same assay, conditions: residual activity of DdlB, fragment library screening, tested concentration 3.0 mM; read-out: DdlB RA

Point of comparison: CN(CC1CCOC1)C(=O)C1CC1 (stereo not drawn) [Compound S213-1842], remaining activity at 3000 µM 91%. Against it:
- Cn1nc(C(=O)O)c2c1CCOC2 [Compound P207-8979] — lower, 88%

same assay, conditions: residual activity of DdlB, fragment library screening, tested concentration 3.6 mM; read-out: DdlB RA

For C#CC1(O)C(C)CN(C)CC1C (stereo not drawn) [Compound 8013-1764], the remaining activity at 3600 µM was 97%.

same assay, conditions: residual activity of DdlB; fragment library screening; tested concentration 2.5 mM; read-out: DdlB RA

Point of comparison: O=C(O)c1ccc(-c2cnco2)cc1 [FLD026], remaining activity at 2500 µM 87%. Against it:
- Cc1ccc(O)c(C(=O)O)c1 [FLD072] — higher, 99%
- Nc1cc[nH]c(=O)n1 [FLD053] — higher, 100%
- O=C(O)c1ccccc1Br [FLD060] — higher, 100%
- Cc1cc(N)no1 [FLD014] — higher, 104%
- O=C1CNC(=O)N1 [FLD041] — higher, 95%
- S=c1[nH]ncs1 [FLD079] — lower, 81%
- COc1cc(C#N)ccc1C [FLD012] — lower, 51%
- Nc1ccc(Cl)cc1 [FLD080] — higher, 100%
- CCOC(=O)c1[nH]cnc1C [FLD106] — higher, 100%
- Cc1ccc(O)c(C)c1 [FLD165] — higher, 91%
- COc1cnc(N)nc1 [FLD089] — higher, 100%
- COc1ccc(Br)cc1OC [FLD159] — higher, 98%
- COc1ccc2ccc(O)cc2c1 [FLD013] — lower, 73%
- CCOc1ccc(NC(C)=O)cc1 [FLD064] — higher, 98%
- OCc1cccs1 [FLD200] — higher, 95%
- Nc1cccc2ncccc12 [FLD054] — higher, 94%
- Nc1cc(F)c(F)cc1C(=O)O [FLD047] — higher, 92%
- N#CCc1ccc(C(F)(F)F)cc1 [FLD116] — higher, 94%
- Nc1csc2nccnc12 [FLD078] — higher, 100%
- Cc1cc(Cl)ccc1O [FLD037] — lower, 85%
- Nc1ncccn1 [FLD133] — higher, 102%
- O=C(O)c1ccc(-n2ccnc2)cc1 [FLD020] — higher, 96%
- CCOC(=O)C(C#N)c1ccccc1 (stereo not drawn) [FLD181] — higher, 89%
- Cc1cc(N)[nH]n1 [FLD153] — higher, 98%
- O=C(O)Cc1ccncc1 [FLD055] — higher, 96%
- Nc1ncncn1 [FLD084] — higher, 98%
- Cc1nc2ccccc2nc1O [FLD171] — higher, 95%
- CN(C)c1ccc(C(=O)O)cc1 [FLD070] — higher, 93%
- NOCc1ccccc1 [FLD044] — higher, 94%
- O=C1CCC(C(=O)O)N1 (stereo not drawn) [FLD028] — higher, 100%

same assay, conditions: residual activity; tested concentration 1.7 mM; read-out: DdlB RA

Point of comparison: CCc1nnc(C2CCCN(C(=O)C3CCCCC3)C2)[nH]1 (stereo not drawn) [Compound T629-1509], remaining activity at 1700 µM 71%. Against it:
- O=C(N/N=C/c1ccc2cccc(O)c2n1)c1ccccc1 [Compound 4539-0001] — lower, 49%
- CCN1CCN(c2ccc(NC(C)=O)c(C(=O)O)c2)CC1 [Compound F687-0683] — higher, 94%
- Cc1cc(C2CCCN2C(=O)c2ccc(F)c(F)c2)on1 (stereo not drawn) [Compound Z632-2808] — higher, 98%

same assay, conditions: residual activity; tested concentration 1.8 mM; read-out: DdlB RA

Point of comparison: O=C(c1n[nH]c2ccccc12)N1C[C@H]2CCC[C@@H](O)[C@H]2C1 [Compound S890-0272], remaining activity at 1800 µM 95%. Against it:
- CCS(=O)(=O)N1CC2(CC(N3CCCC3)CO2)C1 (stereo not drawn) [SA46-1771] — lower, 90%
- CC(=O)CC1(O)C(=O)Nc2ccc(Br)cc21 (stereo not drawn) [Compound 5897-0084] — higher, 96%

same assay, conditions: residual activity; tested concentration 2.0 mM; read-out: DdlB RA

Point of comparison: COc1cccc(-c2ncc(C(=O)O)c(=O)[nH]2)c1 [Compound 8020-2801], remaining activity at 2000 µM 92%. Against it:
- CN1CCN(C2CC(=O)N(c3ccccc3)C2=O)CC1 (stereo not drawn) [Compound 5593-0294] — higher, 99%
- O=C(O)c1ccccc1NC(=O)N1CCOCC1 [Compound Y043-2494] — higher, 96%

same assay, conditions: residual activity; tested concentration 2.1 mM; read-out: DdlB RA

Point of comparison: Cc1noc(C)c1S(=O)(=O)N1CC(n2ccnc2)C1 [Compound S695-2555], remaining activity at 2100 µM 97%. Against it:
- O=C1CCC2(CNC(=O)C3CCOCC3)CCCC=C2N1 (stereo not drawn) [Compound S570-0163] — lower, 94%
- CCC([N+](=O)[O-])C1(O)C(=O)Nc2ccccc21 (stereo not drawn) [Compound 3817-0017] — lower, 95%
- O=C1C(O)C2(CCCCC2)N1C1CCNCC1 (stereo not drawn) [Compound T965-0058] — lower, 90%

same assay, conditions: residual activity; tested concentration 2.2 mM; read-out: DdlB RA

CC1(C)Cc2[nH]c(=O)c(C(=O)O)cc2CO1 [Compound 4965-0162] showed a remaining activity at 2200 µM of 93%.

same assay, conditions: residual activity; tested concentration 2.3 mM; read-out: DdlB RA

Point of comparison: O=C(O)c1cnc(-c2cccnc2)[nH]c1=O [Compound 8020-5063], remaining activity at 2300 µM 94%. Against it:
- Cc1nnc(-c2ccc(C(=O)O)c(N)c2)o1 [Compound 8020-0732] — higher, 114%

same assay, conditions: tested concentration 1.7 mM; read-out: DdlB RA

Point of comparison: O=C(c1ccccc1)N1CCC(c2nnc(C3CC3)[nH]2)CC1 [Compound T630-2594], remaining activity at 1700 µM 91%. Against it:
- COc1ccc(-c2c(Nc3cccc(C)c3)c(=O)c2=O)cc1 [Compound E470-1008] — higher, 100%
- COC(=O)CCC(=O)Nc1ccc(S(N)(=O)=O)cc1 [Compound 1699-0796] — lower, 89%
- Cc1ccc(S(N)(=O)=O)cc1NC(=O)c1cccnc1 [Compound Y202-7310] — higher, 100%
- NS(=O)(=O)c1ccc(NC(=O)CCn2cnnn2)cc1 [Compound 8017-4431] — higher, 99%

same assay, conditions: tested concentration 1.8 mM; read-out: DdlB RA

Work on O=C(Nc1ccc2[nH]c(=O)oc2c1)c1ccc(F)cc1 [Compound G434-0256] yielded a remaining activity at 1800 µM of 74%.

same assay, conditions: tested concentration 1.9 mM; read-out: DdlB RA

With CC(=O)N1C(C(=O)O)CSC1c1ccc(C)cc1 (stereo not drawn) [Compound C796-0200] the remaining activity at 1900 µM was 90%.

same assay, conditions: tested concentration 2.0 mM; read-out: DdlB RA

Work on O=C(O)CCC(=O)NC1C2CC3CC(C2)CC1C3 (stereo not drawn) [Compound Y206-2966] yielded a remaining activity at 2000 µM of 90%.

same assay, conditions: tested concentration 2.1 mM; read-out: DdlB RA

Point of comparison: O=S(=O)(Cc1ccccc1F)N1CCOCC1 [Compound Y300-2685], remaining activity at 2100 µM 95%. Against it:
- Cc1c(Cl)ccc(S(N)(=O)=O)c1Cl [Compound 8011-1291] — lower, 69%
- Nc1c(Cl)cc(S(N)(=O)=O)cc1Cl [Compound 0772-0030] — lower, 93%
- CN1CCC(Oc2ncccc2C(=O)O)CC1 [Compound P391-0905] — lower, 92%
- Cc1cc(F)c(F)c(C(=O)n2ccnc2)c1Cl [Compound 8009-4247] — higher, 102%

same assay, conditions: tested concentration 2.2 mM; read-out: DdlB RA

Point of comparison: N#Cc1cccc2cccc(S(=O)(=O)O)c12 [Compound 1326-0564], remaining activity at 2200 µM 96%. Against it:
- Nc1cc(Br)cc2cccnc12 [Compound 8009-3726] — lower, 89%
- CN1CCC2(CC1)CNCc1ccccc1O2 [Compound S530-0066] — lower, 94%

same assay, conditions: tested concentration 2.3 mM; read-out: DdlB RA

Point of comparison: Cc1ccc([N+](=O)[O-])cc1S(=O)(=O)O [Compound 0804-0047], remaining activity at 2300 µM 93%. Against it:
- CC(C)(C)NS(=O)(=O)Cc1ccc(Cl)cc1 [Compound Y031-1123] — lower, 91%
- COc1ncccc1S(=O)(=O)N1CCCCC1 [Compound C200-8263] — higher, 100%

same assay, conditions: tested concentration 2.4 mM; read-out: DdlB RA

Point of comparison: Nc1c(C(=O)O)cnc2ccc(F)cc12 [Compound 8020-2302], remaining activity at 2400 µM 93%. Against it:
- CC(=O)c1cc2c(cc1C)NC(C)(C)CC2C (stereo not drawn) [Compound Y021-0953] — higher, 97%
- CC(C)CS(=O)(=O)N1CCc2ccccc2C1 [Compound Y200-6914] — lower, 73%
- NS(=O)(=O)c1cccc2cccnc12 [Compound R005-0042] — lower, 88%

same assay, conditions: tested concentration 2.5 mM; read-out: DdlB RA

Point of comparison: CC(C)N1CCC(CCC(=O)O)CC1 [FF20-1518], remaining activity at 2500 µM 108%. Against it:
- CCc1ccc(S(N)(=O)=O)cc1N [Compound 8020-2865] — lower, 97%

same assay, conditions: tested concentration 2.6 mM; read-out: DdlB RA

Point of comparison: Cc1nc2c(C)cccn2c1C(=O)O [Compound 8019-6472], remaining activity at 2600 µM 93%. Against it:
- Cc1cc(Nc2c(O)c(=O)c2=O)no1 [Compound G317-0569] — the same, 93%

same assay, conditions: tested concentration 2.7 mM; read-out: DdlB RA

Point of comparison: O=C(O)c1cnn(-c2ccccn2)c1 [Compound 8018-8592], remaining activity at 2700 µM 94%. Against it:
- O=C(O)C1C2CCC(C2)C1C(=O)NC1CC1 (stereo not drawn) [Compound Y205-0716] — lower, 93%

same assay, conditions: tested concentration 2.8 mM; read-out: DdlB RA

With Cc1ccccc1CS(=O)(=O)N(C)C [Compound Y300-2769] the remaining activity at 2800 µM was 87%.

same assay, conditions: tested concentration 2.9 mM; read-out: DdlB RA

With Nc1ccc(S(=O)(=O)O)cc1 [Compound 8001-1265] the remaining activity at 2900 µM was 95%.
